Experimental data from patent US5136093A, “Quaternized panthenol compounds and their use” (priority 1991, dated 1992).
Entries after “also recorded” stand apart in the source; their conditions may differ.

Legend:
[1] = aqueous solutions; hydrolysis increases as pH varies from optimum; cited from earlier work
[2] = Rubine dye uptake (substantivity) on human hair swatches/tresses; settings: for Rubine dye uptake / uptake with respect to the positive control: 50% aqueous solution (panthenol) or 50% solids aqueous solution; for Rubine dye uptake: Demeo Natural White Hair, read at 520 nm; for uptake with respect to the positive control: relative to positive control; for greater uptake than the unquaternized panthenol: human hair swatches
Description: In the following Examples, the qualitative test for measuring the substantivity of the compounds on hair was the Rubine Dye Test using Pyrazol Fast Bordeaux, as described in U.S. Pat. No. 3,769,398 to Hewitt and Crawford et al. J. Soc. Cosmet. Chem. 31, 273-278 (1980), the entire disclosures of which are incorporated herein by reference. The intensity of the residual pink color, after rinsing, on a hair swatch previously treated with the compound, is an indication of the degree of deposition of the compound onto the hair. Absence of pink color points to a lack of substantivity.
In a one liter reaction flask, fitted with a stirrer, thermometer reflux condenser, heating mantle and a feed funnel, 205 grams of deionized water was charged. 205 grams (1 mole) of d,l-panthenol was charged in the water and stirred until dissolved. In a separate, stirred, one liter vessel, 376 grams (1 mole) of 50% aqueous QUAB 188 (3-Chloro-2-hydroxypropyl trimethylammonium chloride) was reacted with approximately 80 grams (1 mole) of 50% aqueous sodium hydroxide solution, to form a solution of QUAB 151 (2, 3-Epoxypropyl trimethyl ammonium chloride), to a pH of ^~ 9.5. The batch was heated to 50°-60° C., and the QUAB 151 solution was added to the panthenol solution through the feed funnel. The pH of the reaction mixture was checked, and adjusted to ^~ 9.5 with a small additional amount of 50% sodium hydroxide solution, as required. The batch was then agitated at 50°-60° C. for a four hour period to assure complete reaction. The pH of the batch was then adjusted to 6.5-8.0 with a small amount of lactic acid. The resultant product was a clear yellow solution, containing approximately 50% of trimethyl quaternized panthenol.
In a two liter reaction flask, fitted with a stirrer, thermometer, reflux condenser, heating mantle and a feed funnel, 205 grams of deionized water was charged. 205 grams (1 mole) of d,l- panthenol was charged into the water and stirred until dissolved. In a separate stirred one liter vessel, 852 grams (1 mole) of 50% aqueous QUAB 426 (3-Chloro-2-hydroxypropyl stearyl dimethylammonium chloride) was reacted with approximately 80 grams (1 mole) of 50% aqueous sodium hydroxide solution, to form a solution of QUAB 393 (2,3-Epoxypropyl stearyl dimethyl ammonium chloride), to a pH of ^~ 9.5. The batch was heated to 50°-60° C., and the QUAB 393 solution was added to the panthenol solution through the feed funnel. The pH of the reaction mixture was checked, and adjusted to ^~ 9.5 with a small additional amount of 50% sodium hydroxide solution, as required. The batch was then agitated at 50°-60° C. for a four hour period to assure complete reaction. The pH of the batch was then adjusted to 6.5-8.0 with a small amount of lactic acid. The resultant product was a clear yellow solution, containing approximately 50% solids, of which approximately 43% was stearyl dimethyl quaternized panthenol.
Rubine Dye uptake as a measure of substantivity.
Four tresses of Demeo Natural White Hair weighing approximately 0.5 grams each were immersed in 15 grams of the appropriate solution (i.e. positive control, negative control and test samples) for a period of not less than 5 minutes. Each tress was then rinsed five times with 100 ml of water at 120° F.
The tresses were then immersed in a solution of fast Rubine dye for 15 minutes, rinsed five times with 100 ml of water at 105° F., then air dried overnight on filter paper. Each tress was weighed directly into a tared beaker. The dye was stripped from the hair and the solution then brought to the volume with deionized water. The transmission of each sample was then read at 520 nm and its absorbance adjusted to the weight of the hair sample. The dye concentration was calculated from a standard calibration curve.

[3] = Compatibility with formulation ingredients; assay type: physicochemical; settings: in finished cosmetic formulation
Protocol: Procedure: The water was weighed into a beaker. Each Phase A ingredient was then added to the water phase in the order listed and mixed thoroughly after the addition of each ingredient. The fragrance was dissolved in the alcohol and Phase B was added to Phase A and mixed until clear and uniform.
Procedure: Phase A was heated to 55° C. Phase B was added and mixed until uniform. Phase C ingredients were added in the order listed and mixed until uniform. When the batch cooled to 45° C., Phase E and Phase F were added and the batch was mixed until uniform. The pH was adjusted with Citric Acid. Phase H was added and the batch was mixed until uniform.
Procedure: The Siltech C-2145CG emulsion was predispersed in the Phase A water in a beaker. The Phase "B" ingredients were dissolved one at a time into the remainder of the water and mixed until clear. Phase "C" ingredients were mixed until clear and uniform. Phase "A" was added to Phase "B" with agitation. Then Phase "C" and "D" were added and the batch was mixed until uniform.
Procedure: Phase A was weighed into a beaker and was then mixed until clear and uniform. Phase B and then Phase C were added to Phase A while mixing. The batch was mixed until clear and uniform.
Procedure: Ucare Polymer JR was dispersed in the water. After the polymer was dispersed, the Methylparaben was added. Phase A was then heated to 60° C. […]

SMILES	optimum pH for stability [1]	Rubine dye uptake [2]	uptake with respect to the positive control [2] [%]	also measured
CC(C)(CO)[C@@H](O)C(=O)NCCCO [d-Panthenol]	approximately 6			
CC(C)(CO)C(O)C(=O)NCCCO (stereo not shown) [Panthenol]		52.35 mg of dye/50 gm of hair	36.91	
CC(C)(CO)C(O)C(=O)NCCCO (racemic) [d,l-Panthenol]	approximately 6			
CCCCCCCCCCCCCCCCCC[N+](C)(C)CC(O)COCC(C)(C)C(O)C(=O)NCCCO (racemic) [stearyl dimethyl quaternized panthenol]		66.30 mg of dye/50 gm of hair	46.74	greater uptake than the unquaternized panthenol, adjusted for concentration of active material ([2]; 50% solids aqueous solution vs panthenol 50% aqueous solution, adjusted for concentration of active material): ~31%; greater uptake than the unquaternized panthenol ([2]; versus a 50% panthenol solution, not adjusted for active material): ~27%; compatibility with other ingredients [3]: compatible with the anionic surfactants that make up the shampoo; also recorded: compatible with the cationic silicone emulsion (Siltech E-2145CG) and with the hair fixative polymer; also recorded: compatible with the hair fixative polymer and with the ethanol; also recorded: compatible with the other cationic ingredients in the formula; also recorded: compatible with all of the nonionic ingredients in the formula; also recorded: compatible with the anionic soaps and surfactants in the Neutrogena™ soap bar
CC(C)(COCC(O)C[N+](C)(C)C)C(O)C(=O)NCCCO (racemic) [trimethyl quaternized panthenol]				greater uptake than the unquaternized panthenol ([2]; versus panthenol solution of comparable concentration): ~7%
